Measured values taken from PMC5566973 (Frontiers in Pharmacology, 2017).

Columns and labels:
MDCK cell monolayers = assay: Bidirectional transport in MDCK cell monolayers with selective transporter inhibitors or substrates; format: in vitro ADME, canine; settings: 2 μM
Procedure: (§1) Caco-2, MDCK and MDCK-MRP2 cells were donated by Prof. Yan Xie and Yueming Ma from Shanghai University of Traditional Chinese Medicine. The cells were grown in culture dishes (Corning® Costar, Cambridge, MA, USA) using DMEM supplemented with 10% FBS, 1% NEAA and 1% penicillin-streptomycin solution. The cells were cultured in 5% CO2 and […] with 90% relative humidity at 37°C. The medium was replaced every other day during incubation. The cells were passaged every 3–4 days between 70 and 80% confluence at a 1:5 split ratio using 0.25% trypsin-EDTA. For the transport experiments, the cells from passages between 30 and 45 were seeded at 1 × 10^5 cells/cm^2 onto permeable polycarbonate inserts (0.45 μm pore size, seeding surface of 0.6 cm^2, Millipore, MA, USA) in 24-well plastic plates. The media in the culture plates were changed every other day for the first week after seeding and were replaced daily afterward. […] The cells were used for the transport experiments 21–28 (Caco-2) or 5–7 (MDCK and MDCK-MRP2) days after seeding, and only monolayers with a TEER-value above 420 Ω cm^2 were used during the studies.
(§2) The apical (AP) and basolateral (BL) sides are typical of polarized Caco-2, MDCK and MDCK-MRP2 epithelial cells. Before the experiments, the polarized cell monolayers were washed twice with warm HBSS solution and subsequently preincubated (37°C, 30 min). Afterward, HBSS solution on both sides of the cell monolayers was removed using a mini desktop vacuum pump. […] The final DMSO concentration in the HBSS or drug mixture was below 0.5%. The monolayers were incubated at 37°C, and 100 μL samples were taken at 30, 60, 90, and 120 min from the acceptor compartment and immediately replaced with the same volume of prewarmed fresh blank HBSS. TEER measurements for assessing the membrane integrity took place before and after the experiments.
(§3) The apparent permeability coefficients (Papp) and ER were calculated as Equations (2) and (3): […]
(§4) where dQ/dt is the steady-state flux, A is the membrane surface area, and C0 is the initial drug concentration in the donor compartment. PappBA is the Papp-value measured in BL to AP direction and PappAB is the Papp-value measured in AP to BL direction. It indicated the involvement of an active transport process when the ER-value is above 1.5 (Hubatsch et al., [2007]).

OCTs/OCTNs = assay: as above; format: in vitro ADME, canine; settings: dog, with TEA 5 mM, + TEA 5 mM (OCTs/OCTNs)
Procedure: as §1, §2, §3, §4

[1] = test system: MDCK-MRP2 cell monolayers; assay: Bidirectional transport in MDCK-MRP2 cell monolayers with MRP2 inhibitors; format: in vitro ADME, canine; settings: MDCK-MRP2, 2 μM
Procedure: as §1, §2, §3, §4

MRP2 [2] = assay: as above; format: in vitro ADME, canine; settings: dog, MDCK-MRP2, 2 μM
Procedure: as §1, §2, §3, §4

MRP2 [3] = assay: Western blot analysis of MRP2 protein expression in Caco-2 cells; format: cell-based, human; settings: 48 h, 2 and 5 μM, compared with the control group
Procedure: The Caco-2 cells were seeded into 6-well plates at a density of 1 × 10^5 cells/mL and cultured for 24 h. […] Protein lysate was collected by centrifugation at 12,000 rpm at 4°C for 10 min, and the total protein content was determined using BCA protein assay kit. Proteins were then mixed with a quarter volume of loading buffer and heated at 100°C for 5 min. Approximately 20 μg of the total protein content was separated by SDS-PAGE through an 8% acrylamide gel and transferred to PVDF membranes. After washing with PBST, the membrane was blocked with 5% fat-free milk in PBST for 1 h at room temperature (RT) and then incubated with anti-MRP2 (1:500) and anti-GAPDH (1:5,000) overnight at 4°C. Afterwards, the membranes were rinsed with PBST and incubated with HRP-conjugated anti-rabbit (1:5,000) secondary antibody for 2 h at RT. After complete washing with PBST, the protein bands were visualized with ECL prime kit (GE Healthcare, NA, UK).

[4] = Cytotoxicity CCK-8 assay in Caco-2 cells; format: cell-based, human; settings: human, Caco-2 cells; Caco-2, up to 5 μM, 12 h incubation; read-out: Cell viability
Procedure: (§5) In brief, the cells were seeded on 96-well plates at 1 × 10^5 cells/mL and cultured in 100 μL of culture medium at incubator for 24 h. […] After 12 h incubation, 10 μL of CCK-8 dye was added to each well, and cells were incubated for another 2 h. Cell viability (%) was calculated using the following Equation (1):
(§6) (1) Cell viability (%)=(ODsample−ODblank)/ (ODcontrol−ODblank) ×100%
(§7) ODsample refers to the absorbance of a well with treated cells and CCK-8. ODblank refers to the absorbance of a well with medium and CCK-8 but without cells. ODcontrol refers to the absorbance of a well with untreated cells and CCK-8. The absorbance at 450 nm was measured by a microplate reader (Biotek Instrument; Gene Co., Ltd., VT, USA), and the results are presented as mean ± SD from triplicate wells.

Caco-2 cells = assay: Cytotoxicity CCK-8 assay in Caco-2 cells; format: cell-based, human; settings: Caco-2, CCK-8
Procedure: as §5, §6, §7

[5] = Metabolic stability in human liver microsomes
[6] = Control (no inhibitor or substrate)
[7] = with MK571 0.05 mM (50 μM), + MK571 0.05 mM (MRP2)
[8] = with probenecid 0.2 mM (200 μM), + Probenecid 0.2 mM (MRP2)

**Q.** Which Modulatory effect (MDCK cell monolayers; + Apigenin 0.025 mM (BCRP)) does the source give for `COc1ccc2c(c1)[nH]c1c(C)nccc12` [Harmine] here?
**A.** −

**Q.** And the PappAB (MDCK cell monolayers; + Apigenin 0.025 mM (BCRP))?
**A.** 4.48 ± 0.24 1 × 10^−6 cm/s

**Q.** And the Modulatory effect (MDCK cell monolayers; + Cimetidine 0.05 mM (OATs))?
**A.** −

**Q.** And the PappBA (MDCK cell monolayers; + Cimetidine 0.05 mM (OATs))?
**A.** 7.43 ± 0.62 1 × 10^−6 cm/s

**Q.** What about the Modulatory effect (MDCK cell monolayers; + ES 0.05 mM (OATPs)) of the same compound?
**A.** −

**Q.** What about the PappAB (MDCK cell monolayers; + ES 0.05 mM (OATPs)) of the same compound?
**A.** 4.59 ± 0.22 1 × 10^−6 cm/s

**Q.** What about the PappBA (MDCK cell monolayers; + ES 0.05 mM (OATPs)) of the same compound?
**A.** 7.17 ± 0.68 1 × 10^−6 cm/s

**Q.** And the Modulatory effect (MDCK cell monolayers; + Gly-Sar 10 mM (PEPT1))?
**A.** −

**Q.** And the PappAB (MDCK cell monolayers; + Gly-Sar 10 mM (PEPT1))?
**A.** 4.59 ± 0.12 1 × 10^−6 cm/s

**Q.** And the PappBA (MDCK cell monolayers; + Gly-Sar 10 mM (PEPT1))?
**A.** 7.50 ± 0.34 1 × 10^−6 cm/s

**Q.** What about the Modulatory effect (MDCK cell monolayers; + Ko143 0.01 mM (BCRP)) of the same compound?
**A.** −

**Q.** And the PappAB (MDCK cell monolayers; + Ko143 0.01 mM (BCRP))?
**A.** 4.50 ± 0.48 1 × 10^−6 cm/s

**Q.** And the Modulatory effect (MDCK cell monolayers; + MK571 0.05 mM (MRP2))?
**A.** +

**Q.** What about the Modulatory effect (MDCK cell monolayers; + NaN3 10 mM (ATP)) of the same compound?
**A.** +

**Q.** What about the Modulatory effect (MDCK cell monolayers; + Phloretin 0.3 mM (MCTs)) of the same compound?
**A.** −

**Q.** What about the PappAB (MDCK cell monolayers; + Phloretin 0.3 mM (MCTs)) of the same compound?
**A.** 4.51 ± 0.16 1 × 10^−6 cm/s

**Q.** What about the PappBA (MDCK cell monolayers; + Phloretin 0.3 mM (MCTs)) of the same compound?
**A.** 7.47 ± 0.27 1 × 10^−6 cm/s

**Q.** What about the Modulatory effect (MDCK cell monolayers; + Phloridzin 0.5 mM (SGLT1)) of the same compound?
**A.** +

**Q.** And the PappAB (MDCK cell monolayers; + Phloridzin 0.5 mM (SGLT1))?
**A.** 3.89 ± 0.36^* 1 × 10^−6 cm/s

**Q.** What about the Modulatory effect (MDCK cell monolayers; + Probenecid 0.2 mM (MRP2)) of the same compound?
**A.** +

**Q.** What about the PappBA (MDCK cell monolayers; + Probenecid 0.2 mM (MRP2)) of the same compound?
**A.** 7.24 ± 0.27 1 × 10^−6 cm/s

**Q.** And the Modulatory effect (MDCK cell monolayers; + Quinidine 0.1 mM (MDR1))?
**A.** −

**Q.** What about the Modulatory effect (MDCK cell monolayers; + Sodium vanadate 0.05 mM (Na^+)) of the same compound?
**A.** +

**Q.** What about the Modulatory effect (MDCK cell monolayers; + TEA 5 mM (OCTs/OCTNs)) of the same compound?
**A.** +

**Q.** And the Modulatory effect (MDCK cell monolayers; + Verapamil 0.1 mM (MDR1))?
**A.** −

**Q.** And the PappAB (MDCK cell monolayers; + Verapamil 0.1 mM (MDR1))?
**A.** 4.59 ± 1.34 1 × 10^−6 cm/s

**Q.** What about the PappAB (MDCK cell monolayers; [6]) of the same compound?
**A.** 4.60 ± 0.25 1 × 10^−6 cm/s

**Q.** What about the PappBA (MDCK cell monolayers; [6]) of the same compound?
**A.** 7.32 ± 0.19 1 × 10^−6 cm/s

**Q.** What about the Papp A→B at 120 min, 2 μM (OCTs/OCTNs) of the same compound?
**A.** 4.15 ± 0.1 ×10⁻⁶ cm/s

**Q.** What about the Papp B→A at 120 min, 2 μM (OCTs/OCTNs) of the same compound?
**A.** 6.96 ± 0.24 ×10⁻⁶ cm/s

**Q.** What about the Modulatory effect ([1]; + MK571 0.05 mM (MRP2)) of the same compound?
**A.** +

**Q.** And the Modulatory effect ([1]; + Probenecid 0.2 mM (MRP2))?
**A.** +

**Q.** What about the Papp A→B at 120 min, 2 μM (MRP2 [2]; [7]) of the same compound?
**A.** 20.8 ± 1.49 ×10⁻⁶ cm/s

**Q.** And the Papp B→A at 120 min, 2 μM (MRP2 [2]; [7])?
**A.** 11.8 ± 1.25 ×10⁻⁶ cm/s

**Q.** What about the Papp A→B at 120 min, 2 μM (MRP2 [2]; [8]) of the same compound?
**A.** 10.1 ± 1.69 ×10⁻⁶ cm/s

**Q.** What about the Papp B→A at 120 min, 2 μM (MRP2 [2]; [8]) of the same compound?
**A.** 8.62 ± 1.05 ×10⁻⁶ cm/s

**Q.** What about the Papp A→B at 120 min, 2 μM (MRP2 [2]; Control (no inhibitor)) of the same compound?
**A.** 3.55 ± 0.4 ×10⁻⁶ cm/s

**Q.** What about the Papp B→A at 120 min, 2 μM (MRP2 [2]; Control (no inhibitor)) of the same compound?
**A.** 8.18 ± 0.98 ×10⁻⁶ cm/s

**Q.** And the “effect on the expression of MRP2” value (MRP2 [3])?
**A.** slightly up-regulate

**Q.** What about the viability at 12 h [4] of the same compound?
**A.** > 90%

**Q.** What about the “concentration without toxicity or decreased cell viability” value (Caco-2 cells) of the same compound?
**A.** up to 5 μM

**Q.** What about the “drug concentration producing notable toxicity” value (Caco-2 cells) of the same compound?
**A.** > 25 µM

**Q.** What about the residual percentage ([5]; human liver microsomes 0.5 mg protein/mL, 2 μM, after incubation) of the same compound?
**A.** 54.25%

**Q.** What about the half-life at 2 μM ([5]; human, liver microsomes) of the same compound?
**A.** 1.65 h

**Q.** And the microsomal CLint at 2 μM ([5]; human, liver microsomes)?
**A.** 14 µL/min/mg
